# From patent US6071884A, “Pharmaceutical compositions and therapeutic methods” (Kirin Beer Kabushiki Kaisha, priority 1992, dated 2000)
# What was measured:
# blood platelets = experiment: Thrombocytopenia-inhibiting effect in X-ray-irradiated mice; format: in vivo, mouse (BDF1); settings: 10 days after 5 Gy X-ray; 0.1 mg/kg i.v. within 2 h; mean ± SD; vehicle per series 10.3, 6.8, 6.7; non-treatment 68.2, 96.9, 73.0
# Procedure, shortened: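 Female BDF1 mice, 6 weeks old, six per group, given 5 Gy whole-body X-ray, then 0.1 mg/kg i.v. via tail vein within 2 hours. Platelets counted by hemocytometer in fundus-vein blood 10 days later; untreated and vehicle groups run alongside.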
# red blood cells = experiment: Red blood cell count in monkey; format: in vivo, croo monkey; settings: for Number of Red Blood Cells: mean ± SD
# Protocol: (§1) Pharmacological Test 7: Blood-Platelet-Increasing Effect upon Monkey
# (§2) Six croo monkeys (female, 3 to 5 years old, 2.3 to 2.8 kg), 2 monkeys in one group were used. A vehicle, 0.1 mg/body of the compound 33 or 1 mg/body of the compound 33 was intravenously administered to the monkeys. 6 and 9 days after the administration, blood was collected by using a blood-collecting tube EDTA-2K, and the numbers of blood platelets, white blood cells and red blood cells contained in the peripheral blood were measured by using an E-2500/cs. The results are shown in Tables 7-1, 7-2 and 7-3, respectively.
# white blood cells = experiment: White blood cell count in monkey; format: in vivo, croo monkey; settings: for Number of White Blood Cells: mean ± SD
# Protocol: as §1, §2
compound,measurement,setting,value
"CCCCCCCCCCCCCCCCCCCCCCCCCC(=O)N[C@@H](CO[C@H]1O[C@H](CO)[C@H](O)[C@H](O)[C@H]1O)[C@H](O)[C@H](O)CCCCCCCCCCCCCC [Compound 33, (2S,3S,4R)-1-(α-D-galactopyranosyloxy)-2-hexacosanoylamino-3,4-octadecanediol]",Number of Blood Platelets,blood platelets,23.9 ± 6.5 × 10^4 /μl
same,Number of Red Blood Cells,"red blood cells; 0.1 mg/body i.v., after 6 days, vehicle 516 ± 6",498 ± 18 × 10^4 /μl
same,Number of Red Blood Cells,"red blood cells; 0.1 mg/body i.v., after 9 days, vehicle 506 ± 1",538 ± 2 × 10^4 /μl
same,red-blood-cell-increasing effect (in words),"red blood cells; 0.1 mg/body, 9 days after administration",red-blood-cell-increasing effect was clearly found
same,Number of Red Blood Cells,"red blood cells; 1 mg/body i.v., after 6 days, vehicle 516 ± 6",569 ± 40 × 10^4 /μl
same,Number of Red Blood Cells,"red blood cells; 1 mg/body i.v., after 9 days, vehicle 506 ± 1",574 ± 37 × 10^4 /μl
same,Number of White Blood Cells,"white blood cells; 0.1 mg/body i.v., after 6 days, vehicle 91 ± 31",156 ± 1 × 10^2 /μl
same,Number of White Blood Cells,"white blood cells; 0.1 mg/body i.v., after 9 days, vehicle 94 ± 57",105 ± 15 × 10^2 /μl
same,white-blood-cell-increasing effect (in words),"white blood cells; 0.1 mg/body, 6 days after administration, equal to 1 mg/body",remarkable white-blood-cell-increasing effect
same,Number of White Blood Cells,"white blood cells; 1 mg/body i.v., after 6 days, vehicle 91 ± 31",150 ± 37 × 10^2 /μl
same,Number of White Blood Cells,"white blood cells; 1 mg/body i.v., after 9 days, vehicle 94 ± 57",169 ± 21 × 10^2 /μl
